Target: human IDO1 (Homo sapiens, UniProt P14902)
Experiment: Assessment of human IDO-1 inhibitory activity in HEK cells (human IDO1/HEK293 cells, kynurenine read-out with Ehrlich reagent, absorbance 490 nm)
Format: cell-based
Set-up: expressed in transfected cells
Conditions: HEK Human IDO-1 cellular assay
How it was run: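 HEK293 cells stably expressing human IDO1 were seeded at 10,000 per well in phenol red-free RPMI with 10% FBS, treated with compound for 20 h at 37 °C. Kynurenine was measured after TCA (0.2% final) and 30 min at 50 °C, using Ehrlich reagent, A490. IC50 normalised to DMSO (0%) and 500 nM reference standard (100%).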

Sequence of human IDO1 (P14902 whole entry): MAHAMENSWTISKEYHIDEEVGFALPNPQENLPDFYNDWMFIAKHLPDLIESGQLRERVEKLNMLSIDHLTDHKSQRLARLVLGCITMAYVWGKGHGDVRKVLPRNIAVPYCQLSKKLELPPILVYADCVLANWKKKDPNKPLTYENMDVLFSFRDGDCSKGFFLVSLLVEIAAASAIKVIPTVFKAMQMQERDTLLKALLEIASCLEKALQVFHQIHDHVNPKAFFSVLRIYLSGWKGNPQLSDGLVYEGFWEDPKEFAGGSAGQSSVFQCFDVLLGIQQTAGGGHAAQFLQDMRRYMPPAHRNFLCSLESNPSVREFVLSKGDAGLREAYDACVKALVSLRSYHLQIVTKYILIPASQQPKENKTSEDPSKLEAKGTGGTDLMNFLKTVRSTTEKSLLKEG

IC50 [nM]	SMILES
< 50	COCC(CC(=O)O)c1cc(F)c(N(CC(C)C)C2CCCCC2)c(NC(=O)Cc2ccc(C)cc2)c1 (single isomer, unassigned) [Example 1170, 3-(4-(cyclohexyl(isobutyl)amino)-3-fluoro-5-(2-(p-tolyl)acetamido)phenyl)-4-methoxybutanoic acid]
< 5	COCC(CC(=O)O)c1ccc(N(CC(C)C)C2CCCCC2)c(NC(=O)Nc2cncnc2)c1 (single isomer, unassigned) [991-2]
< 50	CC[C@H](CC(=O)O)c1ccc(N(CC2CC2)CC(C)(C)O)c(Nc2ccc(F)cc2)c1 (single isomer, unassigned) [Example 273]
< 5	COCC(CC(=O)O)c1ccc(N(CC2CC2)C2CCOCC2)c(Nc2ccc(C#N)c(C)c2)c1 (single isomer, unassigned) [Example 686, 3-(3-((4-cyano-3-methylphenyl)amino)-4-((cyclopropylmethyl) (tetrahydro-2H-pyran-4-yl)amino)phenyl)-4-methoxybutanoic acid]
< 5	CCc1ccc(Nc2cc([C@H](CC)CC(=O)O)ccc2N(CC)C2CCOCC2)cc1 (single isomer, unassigned) [Example 517]
< 50	CCN(c1ccc(C(C)(C)CC(=O)O)cc1Nc1cnc(OC)nc1)C1CCOCC1 [Example 162, 3-(4-(ethyl(tetrahydro-2H-pyran-4-yl)amino)-3-((2-methoxypyrimidin-5-yl)amino)phenyl)-3-methylbutanoic acid]
< 5	CC[C@@H](CC(=O)O)c1ccc(N(CC)C2CCOCC2)c(Nc2cnc(OCC3CC3)nc2)c1 (single isomer, unassigned) [Example 480]
< 50	CC[C@H](CC(=O)O)c1ccc(N(CC(C)(C)O)C2CCCCC2)c(Nc2ccc(F)cc2)c1 (single isomer, unassigned) [Example 236]
> 50	COCC(CC(=O)O)c1ccc(N(CC(C)C)C2CCOCC2)c(NC(=O)Nc2ccc(OC(F)(F)F)cc2)c1 (single isomer, unassigned) [Example 1211, 3-(4-(Isobutyl(tetrahydro-2H-pyran-4-yl)amino)-3-(3-(4-(trifluoromethoxy)phenyl)ureido)phenyl)-4-methoxybutanoic acid]
< 50	C[C@@H]1CN(c2ccc(C(C)(C)CC(=O)O)cc2Nc2ccc(Cl)cc2)C[C@H](C)O1 [Example 733, 3-(3-((4-chlorophenyl)amino)-4-((2S,6R)-2,6-dimethylmorpholino)phenyl)-3-methylbutanoic acid]
< 5	COCCC(CC(=O)O)c1ccc(N(CC(C)C)C2CCCCC2)c(NC(=O)Nc2ccc(C)cc2)c1 (racemic) [Example 1003, (+/−)-3-(4-(Cyclohexyl(isobutyl)amino)-3-(3-(p-tolyl)ureido)phenyl)-5-methoxypentanoic acid]
< 50	CC[C@H](CC(=O)O)c1ccc(N2C[C@@H](C)O[C@@H](C)C2)c(Nc2ccc(Cl)cc2)c1 (single isomer, unassigned) [Example 761]
> 50	CCC(CC(=O)O)c1ccc(N2CCOC[C@H]2C(C)C)c(NC(=O)Nc2ccc(C)cc2)c1 (single isomer, unassigned) [Example 895]
< 50	CCC(CC(=O)O)c1ccc(N(CCC(C)C)C2CCCCC2)c(NC(=O)Cc2ccc(Cl)cc2F)c1 (racemic) [Example 1088]
< 50	COCC(CC(=O)O)c1cc(F)c(N(CC(C)C)CC(C)C)c(NC(=O)Nc2ccc(OC(F)(F)F)cc2)c1 (single isomer, unassigned) [Example 1192, 3-(4-(Diisobutylamino)-3-fluoro-5-(3-(4-(trifluoromethoxy)phenyl)ureido)phenyl)-4-methoxybutanoic acid]
< 5	CCN(c1ccc(C(C)(C)CC(=O)O)cc1Nc1ccc(C#N)cc1)C1CCOCC1 [Example 160, 3-(3-((4-cyanophenyl)amino)-4-(ethyl(tetrahydro-2H-pyran-4-yl)amino)phenyl)-3-methylbutanoic acid]
< 5	CC[C@H](CC(=O)O)c1ccc(N(CC(C)(C)O)C2CCOCC2)c(Nc2ccc3c(c2)OC(F)(F)O3)c1 (single isomer, unassigned) [Example 204]
> 50	CCN(c1ccc(C(C)CC(=O)O)cc1NC(=O)Nc1ccc(C)cc1)C1CCOCC1 (single isomer, unassigned) [Example 641, 3-(4-(ethyl(tetrahydro-2H-pyran-4-yl)amino)-3-(3-(p-tolyl)ureido)phenyl)butanoic acid]
< 5	CC[C@@H](CC(=O)O)c1ccc(N(CC(C)(C)O)C2CCCCC2)c(Nc2ccc(OC(F)F)cc2)c1 (single isomer, unassigned) [Example 226]

IC50 [nM]	SMILES
< 5	CC[C@@H](CC(=O)O)c1ccc(N(CC)C2CCOCC2)c(Nc2ccc(C#N)cc2)c1 (single isomer, unassigned) [Example 458]
< 5	CCC(CC(=O)O)c1cc(NC(=O)Nc2ccc3c(c2)OCO3)c(N(CC(C)C)CC(C)C)cc1F (single isomer, unassigned) [Example 1135, 3-(5-(3-(Benzo[d][1,3]dioxol-5-yl)ureido)-4-(diisobutylamino)-2-fluorophenyl)pentanoic acid]
< 50	COCC(CC(=O)O)c1cc(F)c(N(CC(C)C)CC(C)C)c(NC(=O)Cc2ccc(C)cc2)c1 (single isomer, unassigned) [Example 1177, 3-(4-(Diisobutylamino)-3-fluoro-5-(2-(p-tolyl)acetamido)phenyl)-4-methoxybutanoic acid]
< 5	COCC(CC(=O)O)c1cc(F)c(N(CC(C)C)CC(C)C)c(NC(=O)Cc2ccc(Cl)cc2F)c1 (single isomer, unassigned) [Example 1180, 3-(3-(2-(4-Chloro-2-fluorophenyl)acetamido)-4-(diisobutylamino)-5-fluorophenyl)-4-methoxybutanoic acid]
< 5	CCC(CC(=O)O)c1cc(NC(=O)Nc2ccc(C)cc2F)c(N(CC(C)C)C2CCCCC2)cc1F (racemic) [Example 1119, (±)-3-(4-(Cyclohexyl(isobutyl)amino)-2-fluoro-5-(3-(2-fluoro-4-methylphenyl)ureido)phenyl)pentanoic acid]
< 5	CCC(CC(=O)O)c1ccc(N(CC2CC2)C2CCOCC2)c(Nc2ccc(C#N)cc2)c1 (single isomer, unassigned) [Example 706, 3-(3-((4-cyanophenyl)amino)-4-((cyclopropylmethyl) (tetrahydro-2H-pyran-4-yl)amino)phenyl)pentanoic acid]
> 50	COCC(CC(=O)O)c1ccc(N(CC(C)C)C2CCOCC2)c(NC(=O)Nc2ccc(OC)cc2F)c1 (single isomer, unassigned) [Example 1214, 3-(3-(3-(2-Fluoro-4-methoxyphenyl)ureido)-4-(isobutyl(tetrahydro-2H-pyran-4-yl)amino)phenyl)-4-methoxybutanoic acid]
< 50	CCOc1ncc(Nc2cc(C(CC(=O)O)c3ccccc3)ccc2N(CC)C2CCOCC2)cn1 (single isomer, unassigned) [Example 578, 3-(3-((2-Ethoxypyrimidin-5-yl)amino)-4-(ethyl(tetrahydro-2H-pyran-4-yl)amino)phenyl)-3-phenylpropanoic acid]
< 5	CC[C@H](CC(=O)O)c1ccc(N(CC(C)(C)O)C2CCCCC2)c(Nc2ccc(OC(F)F)cc2)c1 (single isomer, unassigned) [Example 237]
> 50	CC[C@H](CC(=O)O)c1ccc(N2CCOC[C@@H]2C(C)C)c(NC(=O)Nc2cc(C)on2)c1 (single isomer, unassigned) [Example 88]
< 5	COCC(CC(=O)O)c1ccc(N(CC(C)C)C2CCCCC2)c(NC(=O)Nc2ccc(OC)cc2F)c1 (single isomer, unassigned) [Example 1233, 3-(4-(Cyclohexyl(isobutyl)amino)-3-(3-(2-fluoro-4-methoxyphenyl)ureido)phenyl)-4-methoxybutanoic acid]
> 50	CC[C@@H](CC(=O)O)c1ccc(N(CC)C2CCOCC2)c(Nc2cnc3cnccn23)c1 (single isomer, unassigned) [Example 472]
> 50	CCOc1ccc(NC(=O)Nc2cc([C@H](CC)CC(=O)O)ccc2N2CCC[C@H]2C(C)(C)O)cc1 (single isomer, unassigned) [Example 810]
> 50	CCC(CC(=O)O)c1ccc(N(CC(C)C)C2CCCCC2)c(NC(=O)c2ccc(Oc3ccccc3)cc2)c1 (racemic) [Example 1074, 3-(4-(Cyclohexyl(isobutyl)amino)-3-(4-phenoxybenzamido)phenyl)pentanoic acid]
< 5	CCCN(CC1CC1)c1ccc(C(CC)CC(=O)O)cc1Nc1cnc(OCC)nc1 (single isomer, unassigned) [Example 660, 3-(4-((cyclopropylmethyl)(propyl)amino)-3-((2-ethoxypyrimidin-5-yl)amino)phenyl)pentanoic acid]
> 50	CCOc1ccc(NC(=O)Nc2cc(C(COC)CC(=O)O)ccc2N(CC(C)C)C2CCOCC2)cc1 (single isomer, unassigned) [Example 1212, 3-(3-(3-(4-Ethoxyphenyl)ureido)-4-(isobutyl(tetrahydro-2H-pyran-4-yl)amino)phenyl)-4-methoxybutanoic acid]
< 50	Cc1ccc(NC(=O)Nc2cc(C(C)CC(=O)O)ccc2N(CC(C)C)C2CCOCC2)cc1 (single isomer, unassigned) [Example 958, 3-(4-(Isobutyl(tetrahydro-2H-pyran-4-yl)amino)-3-(3-(p-tolyl)ureido)phenyl)butanoic acid]
< 5	CCCN(c1ccc([C@@H](COC)CC(=O)O)cc1Nc1ccc(F)cc1)C1CCOCC1 (single isomer, unassigned) [Example 562]
< 50	COCC(CC(=O)O)c1cc(F)c(N(CC(C)C)C2CCCCC2)c(NC(=O)Nc2ccc(OC(F)(F)F)cc2)c1 (single isomer, unassigned) [Example 1154, 3-(4-(cyclohexyl(isobutyl)amino)-3-fluoro-5-(3-(4-(trifluoromethoxy)phenyl)ureido)phenyl)-4-methoxybutanoic acid]

— US9790169B2, “IDO inhibitors” (BRISTOL-MYERS SQUIBB COMPANY, priority 2015, dated 2017)
